Source: publication PMC10799042 (Scientific Reports, 2024)

Assays:
malondialdehyde (MDA) = assay: Lipid peroxidation (LPO) assay, MDA in brain homogenate; format: in vivo; conditions: brain THS of mice, scopolamine 1.5 mg/kg i.p.; donepezil and compounds 2 mg/kg p.o.; mean ± SD
Method: (§1) The animals were properly acclimated before being randomly placed into 12 groups (I-XII), with six animals in each group. […] Following the delivery of the dose to the mouse, the rodent's behaviour was assessed using the traditional Morris water maze (MWM) technique.
(§2) After five days of behavioral assessment, the mice's brains were removed and homogenized (blended) in chilled phosphate buffer (pH 7.4) at a concentration of 10% w/v (weight per volume). The homogenates were then centrifuged (spun at high speed) for 20 min at 4 °C to separate the supernatant (liquid) from the pellet (solid material). The supernatant was then collected to measure biological substances.
The amount of malondialdehyde (MDA), a marker of lipid peroxidation (LPO), was measured using a method described by Wills[10]. Tris–HCl buffer and THS were mixed and incubated at 37 °C for 2 h with 10% trichloroacetic acid. After incubation, the mixture was centrifuged again (at 1000 rpm for 10 min). […] After cooling, 1.0 mL of double-distilled water was added, and the absorbance was measured at 532 nm.

nitrite = assay: Nitrite assay (Greiss reagent) in brain homogenate; format: in vivo; conditions: brain THS of mice, scopolamine 1.5 mg/kg i.p.; donepezil and compounds 2 mg/kg p.o.; mean ± SD
Method: as §1, §2
The amount of nitric oxide in THS was calculated using Greiss' reagent, a mixture of chemicals that reacts with nitric oxide to produce a colored product. The absorbance of the colored product was computed at 540 nm and the concentration of nitrite was determined using a standard curve of known nitrite concentrations.

[1] = system: scopolamine-induced memory impairment and learning disability in mice; assay: Morris water maze, scopolamine-induced memory impairment; format: in vivo, Swiss albino male mice; conditions: for escape latency versus scopolamine-treated mice (in words) / improvement of cognitive defects (in words): 2 mg/kg; for escape latency versus scopolamine-treated mice (in words): day 1 to 5; for Escape latency, 1st Day: day 1; for Escape latency, 2nd Day: day 2; for Escape latency, 3rd Day: day 3; for Escape latency, 4th Day: day 4; for Escape latency, 5th Day: day 5; for improvement of cognitive defects (in words): compared with donepezil 2 mg/kg
Method: Swiss albino male mice weighing 25–30 g were purchased from LLRUVAS in Hisar, Haryana, India. […] The housing, care, and handling of the animals were done per CPCSEA requirements. The animals were exposed to the laboratory setting for seven days before the experiment.
as §1
Five days of continuous animal evaluations were conducted using the MWM model. […] The tank was placed in a dim laboratory, and using wires anchored at the pool's edge at an angle to one another, it was divided into four equal pieces (P1–P4). A stage in the targeted area (P4) of the pool with an upper face (6 × 6 cm^2) immersed in the water (1.0 cm below the surface). The location of the stage stayed the same throughout the evaluation. The animals were subjected to water pools throughout the evaluation by turning their heads towards the wall from any of the four segments, namely P1-P4, and being given 90 s to recognise the stage placed in a pool. If the animal couldn't get to the stage in 90 s, they were gently guided onto the stage under supervision. On the sixth day, one of the parameters used to determine if cognitive impairments have recovered was the time it took the mice to travel from the initial portion to locate the hidden stage in the intended part (escape latency). […]

[2] = system: Superoxide dismutase (SOD); assay: Superoxide dismutase (SOD) assay in brain homogenate; format: in vivo; conditions: brain THS of mice, scopolamine 1.5 mg/kg i.p.; donepezil and compounds 2 mg/kg p.o.; mean ± SD
Method: as §1, §2
The samples contained EDTA, sodium carbonate, and NBT, and the assay was performed using Kono's method. Each sample tube contained 2.0 mL of this mixture, as well as THS and hydroxylamine. The absorbance of the mixture was measured at 560 nm every 30 or 60 s for 2 min to track changes in absorbance.

[3] = system: Reduced glutathione (GSH); assay: Reduced glutathione (GSH) assay in brain homogenate; format: in vivo; conditions: brain THS of mice, scopolamine 1.5 mg/kg i.p.; donepezil and compounds 2 mg/kg p.o.; mean ± SD
Method: as §1, §2
The method described by Jollow et al. was used to measure glutathione (GSH) levels. First, 1.0 mL of 4% sulfosalicylic acid was added to 1.0 mL of tissue homogenate to precipitate the GSH. The mixture was then incubated at 4 °C for 1 h and centrifuged at 1200 rpm for 10 min at 4 °C. The supernatant was collected and diluted to a final volume of 3.0 mL with phosphate buffer and Ellman's reagent. […]

Catalase = Catalase assay in brain homogenate; format: in vivo; conditions: brain THS of mice, scopolamine 1.5 mg/kg i.p.; donepezil and compounds 2 mg/kg p.o.; mean ± SD
Method: as §1, §2
Employing the methodology of Luck et al., catalase activity was quantified. The sample contained H2O2 (1.0 mL, 0.019 M), phosphate buffer (1.95 mL, 0.05 M, pH 7.0), and THS (0.05 mL). The optical density was computed at a wavelength of 240 nm. The findings were shown as μM H2O2 decomposition/min/mg protein[13].

[4] = biological target: T1, Acetylcholinesterase (AChE) (Mus musculus, UniProt P21836); conditions: brain THS of mice, scopolamine 1.5 mg/kg i.p.; donepezil and compounds 2 mg/kg p.o.; mean ± SD
T1 sequence (P21836 32-614): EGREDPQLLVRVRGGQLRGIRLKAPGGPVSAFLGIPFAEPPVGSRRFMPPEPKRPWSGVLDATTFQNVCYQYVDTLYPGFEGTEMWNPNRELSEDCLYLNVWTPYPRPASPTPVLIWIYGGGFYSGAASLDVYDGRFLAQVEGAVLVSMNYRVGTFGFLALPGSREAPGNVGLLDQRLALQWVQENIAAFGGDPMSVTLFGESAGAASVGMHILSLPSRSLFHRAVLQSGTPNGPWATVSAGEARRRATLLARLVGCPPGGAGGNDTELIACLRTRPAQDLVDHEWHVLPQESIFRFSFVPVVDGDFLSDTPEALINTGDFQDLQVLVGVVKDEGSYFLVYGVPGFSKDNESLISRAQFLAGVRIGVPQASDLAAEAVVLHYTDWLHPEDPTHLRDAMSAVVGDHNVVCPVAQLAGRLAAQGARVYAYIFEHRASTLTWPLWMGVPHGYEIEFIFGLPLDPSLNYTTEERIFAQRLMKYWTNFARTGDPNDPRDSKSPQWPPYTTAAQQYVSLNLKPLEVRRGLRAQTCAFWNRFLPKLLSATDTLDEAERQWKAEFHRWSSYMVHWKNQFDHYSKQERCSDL
Method: as §1, §2
Employing Ellman et al., methodology, AChE levels were quantified in tissue homogenate supernatant (THS) to evaluate cholinergic abnormalities.

[5] = mice, scopolamine 1.5 mg/kg i.p., donepezil and compounds 2 mg/kg p.o. with scopolamine, mean ± SD

| Compound | LPO assay, MDA levels (malondialdehyde (MDA)) | Nitrite assay, nitrite conc. (nitrite) [μM/mg protein] | escape latency versus scopolamine-treated mice (in words) [1] | Escape latency, 1st Day [1, 5] [s] | Escape latency, 2nd Day [1, 5] [s] | Escape latency, 3rd Day [1, 5] [s] | Escape latency, 4th Day [1, 5] [s] | Escape latency, 5th Day [1, 5] [s] | SOD assay, SOD units/mg protein [2] [SOD units/mg protein] | GSH assay, μmol of GSH/mg Protein [3] | Catalase assay, Catalase activity (Catalase) [min⁻¹] | μM of AChE/min/mg protein [4] | improvement of cognitive defects (in words) [1] | TSTQ (time spent in the target quadrant) ([1]; mice, scopolamine 1.5 mg/kg i.p., donepezil and compounds 2 mg/kg p.o. with scopolamine, probe trial, mean ± SD) [s] |
| --- | --- | --- | --- | --- | --- | --- | --- | --- | --- | --- | --- | --- | --- | --- |
| 2-(1-benzylpiperidin-4-yl)-4-chloro-6,7-dimethoxyquinoline [Compound 15] | 8.54 ± 0.02 nM/mg of tissue | 14.66 ± 0.04 | significantly reduced escape latency | 80.5 ± 0.86 | 49.83 ± 0.75 | 29.16 ± 3.07 | 11.5 ± 1.04 | 3.83 ± 1.34 | 3.14 ± 0.03 | 0.09 ± 0.003 μmol of GSH/mg Protein | 5.35 ± 0.03 | 0.02 ± 0.02 μM of AChE/min/mg protein | – | – |
| 2-(1-benzylpiperidin-4-yl)-6,7-dimethoxy-4-(4-(trifluoromethyl)phenyl)quinoline [Compound 19] | 9.25 ± 0.02 nM/mg of tissue | 11.31 ± 0.03 | significantly reduced escape latency | 54.83 ± 1.47 | 44.83 ± 2.71 | 21.33 ± 2.68 | 13.16 ± 2.31 | 3.66 ± 0.94 | 3.09 ± 0.03 | 0.09 ± 0.005 μmol of GSH/mg Protein | 5.17 ± 0.05 | 0.01 ± 0.02 μM of AChE/min/mg protein | – | – |
| 2-(1-benzylpiperidin-4-yl)-6,7-dimethoxy-4-(4-methoxyphenyl)quinoline [Compound 18] | 8.52 ± 0.02 nM/mg of tissue | 10.51 ± 0.03 | significantly reduced escape latency | – | 44.83 ± 3.125 | 24.66 ± 1.24 | 13.83 ± 2.63 | 3.33 ± 1.37 | 4.08 ± 0.02 | 0.11 ± 0.001 μmol of GSH/mg Protein | 5.53 ± 0.01 | 0.01 ± 0.01 μM of AChE/min/mg protein | most potent | – |
| 2-(2-(1-benzylpiperidin-4-yl)ethyl)-4-chloro-6,7-dimethoxyquinoline [Compound 17] | 8.73 ± 0.05 nM/mg of tissue | 12.57 ± 0.05 | significantly reduced escape latency | 81 ± 0.89 | 32.83 ± 1.83 | 22.66 ± 1.79 | 12.33 ± 2.25 | 4.16 ± 0.74 | 3.09 ± 0.02 | 0.11 ± 0.006 μmol of GSH/mg Protein | 4.76 ± 0.02 | 0.02 ± 0.01 μM of AChE/min/mg protein | – | – |
| 2-((1-benzylpiperidin-4-yl)methyl)-4-chloro-6,7-dimethoxyquinoline [Compound 16] | 8.52 ± 0.05 nM/mg of tissue | 11.74 ± 0.03 | significantly reduced escape latency | 76 ± 3.3 | 30.8 ± 0.75 | 21 ± 0.81 | 16 ± 1.54 | 5.33 ± 1.24 | 3.07 ± 0.02 | 0.11 ± 0.002 μmol of GSH/mg Protein | 4.66 ± 0.04 | 0.01 ± 0.01 μM of AChE/min/mg protein | – | – |
| 6-chloro-N-(1-(1-(3,4-dimethoxybenzyl)-2-oxopyrrolidin-3-yl)piperidin-4-yl)pyridine-3-sulfonamide [Compound 9] | 8.48 ± 0.02 nM/mg of tissue | 10.42 ± 0.04 | significantly reduced escape latency | 80.5 ± 0.84 | 40.83 ± 0.98 | 23.5 ± 2.92 | 15.83 ± 3.37 | 2.66 ± 0.68 | 4.09 ± 0.02 | 0.11 ± 0.002 μmol of GSH/mg Protein | 6.23 ± 0.02 | 0.01 ± 0.01 μM of AChE/min/mg protein | most potent | – |
| CN1[C@@H]2C[C@@H](OC(=O)[C@H](CO)c3ccccc3)C[C@H]1[C@@H]1O[C@@H]12 [Scopolamine, scopolamine, reference compound] | – | – | – | 78.65 ± 0.82 | 80.64 ± 3.91 | 82.82 ± 3.79 | 84.15 ± 3.31 | 86.25 ± 3.31 | – | – | – | – | – | 18.55 ± 0.88 |
| N-(1-benzylpiperidin-4-yl)-2-(2-oxoindolin-3-yl)acetamide [Compound 23] | – | – | significantly reduced escape latency | 55.33 ± 1.96 | 45.16 ± 0.75 | 35.33 ± 2.56 | 11.83 ± 1.94 | 4.16 ± 1.067 | – | – | – | 0.01 ± 0.04 μM of AChE/min/mg protein | – | – |
